Legend:
Assay type in all cases: in vivo
[1] = tested on: bermudagrass (Cynodon dactylon); experiment: Test B pre-/postemergence plant response
How it was run: (§1)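 Compound in solvent + surfactant applied pre-em (loam/sand) or post-em (plants 2–18 cm, peat medium); greenhouse hold 13–15 days; visual 0–100 control score.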

[2] = tested on: cocklebur (Xanthium strumarium); experiment: Test B pre-/postemergence plant response
How it was run: as §1

[3] = tested on: goosegrass (Eleusine indica); experiment: Test B pre-/postemergence plant response
How it was run: as §1

[4] = tested on: green foxtail (Setaria viridis); experiment: Test B pre-/postemergence plant response
How it was run: as §1

[5] = tested on: lambsquarters (Chenopodium album); experiment: Test B pre-/postemergence plant response
How it was run: as §1

[6] = tested on: large crabgrass (Digitaria sanguinalis); experiment: Test B pre-/postemergence plant response
How it was run: as §1

[7] = tested on: morningglory (Ipomoea coccinea); experiment: Test B pre-/postemergence plant response
How it was run: as §1

[8] = tested on: wheat (Triticum aestivum); experiment: Test B pre-/postemergence plant response
How it was run: as §1

wild oat (Avena fatua) = experiment: Test B pre-/postemergence plant response
How it was run: as §1

[9] = tested on: yellow nutsedge (Cyperus esculentus); experiment: Test B pre-/postemergence plant response
How it was run: as §1

[10] = tested on: barnyardgrass (Echinochloa crus-galli); experiment: Test B flooded paddy test; conditions: for Plant response rating, Flood, Barnyardgrass: 250 g ai/ha, flooded paddy test, visual rating on 0 to 100 scale (0 no effect, 100 complete control) after 13 to 15 days; for Plant response rating, Barnyardgrass: Flood (flooded paddy test), 62 g ai/ha, 13 to 15 days
How it was run: (§2)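 Post-flood paddy application: compounds are introduced into water 3 cm deep over the soil, reaching plants at the 2-leaf stage. The water level is maintained, and after 13–15 days under greenhouse conditions, response is judged by eye relative to controls, where 100 means complete control.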

[11] = tested on: umbrella sedge (Cyperus difformis); experiment: Test B flooded paddy test; conditions: for Plant response rating, Flood, Sedge, Umbrella: 250 g ai/ha, flooded paddy test, visual rating on 0 to 100 scale (0 no effect, 100 complete control) after 13 to 15 days; for Plant response rating, Sedge, Umbrella: Flood (flooded paddy test), 62 g ai/ha, 13 to 15 days
How it was run: as §2

[12] = 250 g ai/ha, Preemergence, 0 to 100 scale
[13] = Postemergence, 31 g ai/ha, scale 0 to 100 (0 no effect, 100 complete control)
[14] = Postemergence, 62 g ai/ha, scale 0 (no effect) to 100 (complete control), 13 to 15 days
[15] = Postemergence, 125 g ai/ha, visual rating after 13 to 15 days, scale 0 (no effect) to 100 (complete control)
[16] = Postemergence, 250 g ai/ha, scale 0 to 100
[17] = Preemergence, 31 g ai/ha, scale 0 to 100 (0 no effect, 100 complete control)
[18] = Preemergence, 62 g ai/ha, scale 0 to 100 (0 no effect, 100 complete control)
[19] = Preemergence, 125 g ai/ha, 0 to 100 scale
[20] = scale 0 to 100, 0 is no effect, 100 is complete control
[21] = 31 g ai/ha, postemergence, scale 0 to 100, 0 is no effect, 100 is complete control
[22] = 62 g ai/ha, postemergence, 0 is no effect, 100 is complete control, 13 to 15 days
[23] = Postemergence, 125 g ai/ha, scale 0 to 100 (0 no effect, 100 complete control)
[24] = Postemergence, 250 g ai/ha, scale 0 to 100 (0 no effect, 100 complete control)
[25] = scale of 0 to 100 where 0 is no effect and 100 is complete control

For `CCCCc1ncc(C(=O)C2=C(O)CCCC2=O)c(=O)n1-c1ccccc1` [Compound 42], which “Plant response rating, Bermudagrass” value [1, 12] is on record?
The value was 100.

What about the “Plant response rating, Bermudagrass” value [1, 13] of the same compound?
Its value is 70.

What about the “Plant response rating, Bermudagrass” value [1, 14] of the same compound?
The value was 75.

What about the “Plant response rating, Bermudagrass” value [1, 15] of the same compound?
Its value is 95.

And the “Bermudagrass plant response rating” value [1, 16]?
Its value is 98.

What about the “Plant response rating, Bermudagrass” value [1, 17] of the same compound?
Its value is 90.

What about the “Plant response rating, Bermudagrass” value [1, 18] of the same compound?
The value was 100.

And the “Bermudagrass plant response rating” value [1, 19]?
Its value is 100.

And the “Plant response rating, Cocklebur” value [2, 13]?
Its value is 0.

And the “Plant response rating, Cocklebur” value [2, 14]?
The value was 45.

And the “Plant response rating, Cocklebur” value [2, 15]?
Its value is 85.

What about the “Cocklebur plant response rating” value [2, 16] of the same compound?
Its value is 95.

And the “Plant response rating, Cocklebur” value [2, 17]?
The value was 0.

What about the “Plant response rating, Cocklebur” value [2, 18] of the same compound?
The value was 0.

And the “Plant response rating, Goosegrass” value [3, 12]?
The value was 100.

What about the “Plant response rating, Goosegrass” value [3, 14] of the same compound?
The value was 85.

And the “Plant response rating, Goosegrass” value [3, 15]?
Its value is 90.

What about the “Goosegrass plant response rating” value [3, 16] of the same compound?
Its value is 95.

And the “Plant response rating, Goosegrass” value [3, 17]?
Its value is 50.

And the “Goosegrass plant response rating” value [3, 19]?
Its value is 100.

And the “Plant response rating, Foxtail, Green” value [4, 12]?
The value was 85.

What about the “Plant response rating, Foxtail, Green” value [4, 13] of the same compound?
Its value is 50.

What about the “Plant response rating, Foxtail, Green” value [4, 14] of the same compound?
Its value is 55.

What about the “Plant response rating, Foxtail, Green” value [4, 15] of the same compound?
Its value is 60.

What about the “Foxtail, Green plant response rating” value [4, 16] of the same compound?
The value was 85.

And the “Plant response rating, Foxtail, Green” value [4, 17]?
Its value is 65.

What about the “Plant response rating, Foxtail, Green” value [4, 18] of the same compound?
The value was 65.

And the “Foxtail, Green plant response rating” value [4, 19]?
The value was 85.

What about the “Plant response rating, Lambsquarters” value [5, 12] of the same compound?
Its value is 100.

What about the “Plant response rating, Lambsquarters” value [5, 14] of the same compound?
The value was 95.

What about the “Plant response rating, Lambsquarters” value [5, 15] of the same compound?
The value was 100.

What about the “Lambsquarters plant response rating” value [5, 16] of the same compound?
The value was 100.

And the “Plant response rating, Lambsquarters” value [5, 17]?
Its value is 100.

And the “Plant response rating, Lambsquarters” value [5, 18]?
Its value is 100.

What about the “Lambsquarters plant response rating” value [5, 19] of the same compound?
Its value is 100.

What about the “Plant response rating, Crabgrass, Large” value [6, 12] of the same compound?
The value was 100.

What about the “Plant response rating, Crabgrass, Large” value [6, 13] of the same compound?
Its value is 70.

What about the “Plant response rating, Crabgrass, Large” value [6, 14] of the same compound?
The value was 75.

What about the “Plant response rating, Crabgrass, Large” value [6, 15] of the same compound?
Its value is 85.

What about the “Crabgrass, Large plant response rating” value [6, 16] of the same compound?
Its value is 90.

What about the “Plant response rating, Crabgrass, Large” value [6, 17] of the same compound?
The value was 45.

What about the “Plant response rating, Crabgrass, Large” value [6, 18] of the same compound?
Its value is 85.

And the “Crabgrass, Large plant response rating” value [6, 19]?
The value was 95.

And the “Plant response rating, Morningglory” value [7, 12]?
Its value is 0.

And the “Plant response rating, Morningglory” value [7, 14]?
The value was 70.

What about the “Plant response rating, Morningglory” value [7, 15] of the same compound?
The value was 75.

And the “Plant response rating, Morningglory” value [7, 17]?
The value was 0.

What about the “Plant response rating, Morningglory” value [7, 18] of the same compound?
The value was 0.

And the “Morningglory plant response rating” value [7, 19]?
The value was 0.

And the “Plant response rating, Wheat” value [8, 12]?
The value was 0.

What about the “Plant response rating, Wheat” value [8, 14] of the same compound?
Its value is 0.

What about the “Plant response rating, Wheat” value [8, 15] of the same compound?
The value was 5.

And the “Plant response rating, Wheat” value [8, 17]?
The value was 0.

What about the “Wheat plant response rating” value [8, 19] of the same compound?
Its value is 0.

What about the “Plant response rating, Oat, Wild” value (wild oat (Avena fatua); [12]) of the same compound?
Its value is 0.

And the “Plant response rating, Oat, Wild” value (wild oat (Avena fatua); [14])?
The value was 10.

What about the “Plant response rating, Oat, Wild” value (wild oat (Avena fatua); [15]) of the same compound?
Its value is 10.

And the “Plant response rating, Oat, Wild” value (wild oat (Avena fatua); [17])?
Its value is 0.

What about the “Oat, Wild plant response rating” value (wild oat (Avena fatua); [19]) of the same compound?
Its value is 0.

What about the “Plant response rating, Nutsedge, Yellow” value [9, 12] of the same compound?
Its value is 85.

What about the “Plant response rating, Nutsedge, Yellow” value [9, 14] of the same compound?
The value was 60.

And the “Plant response rating, Nutsedge, Yellow” value [9, 15]?
Its value is 70.

What about the “Plant response rating, Nutsedge, Yellow” value [9, 17] of the same compound?
Its value is 10.

And the “Nutsedge, Yellow plant response rating” value [9, 19]?
The value was 75.

What about the “Plant response rating, Flood, Barnyardgrass” value [10] of the same compound?
Its value is 0.

What about the “Plant response rating, Barnyardgrass” value [10, 20] of the same compound?
The value was 0.

And the “Plant response rating, Flood, Sedge, Umbrella” value [11]?
The value was 30.

What about the “Plant response rating, Sedge, Umbrella” value [11, 20] of the same compound?
Its value is 30.

What does the source list for `COCC(C)n1c(-c2ccccc2)ncc(C(=O)C2=C(O)CCCC2=O)c1=O` (centres unmarked) [Compound 107]?
Plant response rating, Bermudagrass [1, 21]: 75; Bermudagrass plant response rating (0 to 100 scale) [1, 22]: 80; Plant response rating, Bermudagrass [1, 23]: 95; Plant response rating, Bermudagrass [1, 24]: 98; Plant response rating, Cocklebur [2, 21]: 98; Cocklebur plant response rating (0 to 100 scale) [2, 22]: 100; Plant response rating, Cocklebur [2, 23]: 100; Plant response rating, Cocklebur [2, 24]: 100; Plant response rating, Goosegrass [3, 21]: 75; Goosegrass plant response rating (0 to 100 scale) [3, 22]: 75; Plant response rating, Goosegrass [3, 23]: 75; Plant response rating, Goosegrass [3, 24]: 85; Plant response rating, Foxtail, Green [4, 21]: 70; Foxtail, Green plant response rating (0 to 100 scale) [4, 22]: 75; Plant response rating, Foxtail, Green [4, 23]: 90; Plant response rating, Foxtail, Green [4, 24]: 98; Plant response rating, Lambsquarters [5, 21]: 90; Lambsquarters plant response rating (0 to 100 scale) [5, 22]: 100; Plant response rating, Lambsquarters [5, 23]: 100; Plant response rating, Lambsquarters [5, 24]: 100; Plant response rating, Crabgrass, Large [6, 21]: 75; Crabgrass, Large plant response rating (0 to 100 scale) [6, 22]: 85; Plant response rating, Crabgrass, Large [6, 23]: 90; Plant response rating, Crabgrass, Large [6, 24]: 95; Plant response rating, Morningglory [7, 21]: 100; Morningglory plant response rating (0 to 100 scale) [7, 22]: 100; Plant response rating, Morningglory [7, 23]: 100; Plant response rating, Morningglory [7, 24]: 100; Wheat plant response rating (0 to 100 scale) [8, 22]: 5; Plant response rating, Wheat [8, 23]: 5; Plant response rating, Oat, Wild (wild oat (Avena fatua); [21]): 0; Oat, Wild plant response rating (0 to 100 scale) (wild oat (Avena fatua); [22]): 5; Plant response rating, Oat, Wild (wild oat (Avena fatua); [23]): 20; Plant response rating, Oat, Wild (wild oat (Avena fatua); [24]): 40; Plant response rating, Nutsedge, Yellow [9, 21]: 75; Nutsedge, Yellow plant response rating (0 to 100 scale) [9, 22]: 75; Plant response rating, Nutsedge, Yellow [9, 23]: 75; Plant response rating, Nutsedge, Yellow [9, 24]: 85; Plant response rating, Flood, Barnyardgrass [10]: 60; Plant response rating, Barnyardgrass [10, 25]: 40; Plant response rating, Flood, Sedge, Umbrella [11]: 85; Plant response rating, Sedge, Umbrella [11, 25]: 60

Reference: patent publication US8952024B2, “Herbicidal pyrimidone derivatives” (E I du Pont de Nemours and Company, priority 2009, dated 2015)
